Data on 13 molecules can be found in ChEMBL document CHEMBL4837213, “Hybrids between H2S-donors and betamethasone 17-valerate or triamcinolone acetonide inhibit mast cell degranulation and promote hyperpolarization of bronchial smooth muscle cells” (Eur J Med Chem, 2021).

The source made the active and inactive calls. The calls are words filed in the database; no cut-off is given here.

Series [1] in a line: Drug metabolism in human BSMC cells assessed as intracellular H2S release by measuring increase in fluorescence index at 300 uM measured every 5 mins for 60 mins by WSP-1 dye based spectrofluorometric analysis. Format: ADME, cell-based. As to conditions: 1 h.
Series [2] in a line: Drug metabolism in human BSMC cells assessed as intracellular H2S release by measuring increase in fluorescence index at 100 uM measured every 5 mins for 60 mins by WSP-1 dye based spectrofluorometric analysis. Type of series: ADME, cell-based. As to conditions: 1 h.
The test system of series [3] is RBL-2H3. The series can be described thus: (§1) Inhibition of DNP-HAS-stimulated mast cell degranulation in rat RBL-2H3 cells assessed as reduction in beta-hexosaminidase release at 300 uM incubated for 5 mins followed by DNP-HAS stimulation for 1 hr by multiplate reader analysis. Format: functional. The note with it: time 65.0 min.
Series [4] can be described thus: (§2) Bronchodilatory activity in human BSMC cells assessed as induction of membrane hyperpolarization at 300 uM by spectrofluorometric analysis relative to NS1619. Format: functional.
Series [5] concerns RBL-2H3. The series can be described thus: (§3) Inhibition of DNP-HAS-stimulated mast cell degranulation in rat RBL-2H3 cells assessed as reduction in beta-hexosaminidase release at 100 uM incubated for 5 mins followed by DNP-HAS stimulation for 1 hr by multiplate reader analysis. Format: functional. As to conditions: time 65.0 min.
Series [6] in a line: (§4) Bronchodilatory activity in human BSMC cells assessed as induction of membrane hyperpolarization at 100 uM by spectrofluorometric analysis relative to NS1619. Format: functional.
Series [7] can be described thus: Inhibition of DNP-HAS-stimulated mast cell degranulation in rat RBL-2H3 cells assessed as reduction in beta-hexosaminidase release at 1 mM incubated for 5 mins followed by DNP-HAS stimulation for 1 hr by multiplate reader analysis. Format: functional. The note with it: RBL-2H3, 1.083 h, time 65 min.
The nature of series [8]: as §1. Format: functional. As to conditions: RBL-2H3, 1.083 h, time 65 min.
Series [9] deals with BSMC. Described as §2. Type of series: functional.
A short description of series [10]: as §3. Format: functional. As to conditions: RBL-2H3, 1.083 h, time 65 min.
Series [11] concerns BSMC. Described as §4. Type of series: functional.

In the case of `CC1(C)O[C@@H]2C[C@H]3[C@@H]4CCC5=CC(=O)C=C[C@]5(C)[C@@]4(F)[C@@H](O)C[C@]3(C)[C@]2(C(=O)COC(=O)CCC(=O)Oc2ccc(C(N)=S)cc2)O1`, the Drug metabolism entry in [1] and in [2] was “Metabolite_Notdetected” in each case.

As to `CC1(C)O[C@@H]2C[C@H]3[C@@H]4CCC5=CC(=O)C=C[C@]5(C)[C@@]4(F)[C@@H](O)C[C@]3(C)[C@]2(C(=O)COC(=O)CCC(=O)Oc2ccc(N=C=S)cc2)O1`, the Drug metabolism result in series [1] and in [2] was “Metabolite_Detected” in each case. Moreover, the inhibition result in the series on RBL-2H3 [3] and in the series on RBL-2H3 [5] was “Active” in each case. The “fold change (FC)” value in series [4] and in [6] was 4 in each case.

For the molecule `CCCCC(=O)O[C@]1(C(=O)CO)[C@@H](C)C[C@H]2[C@@H]3CCC4=CC(=O)C=C[C@]4(C)[C@@]3(F)[C@@H](O)C[C@@]21C`, the inhibition result with RBL-2H3 [3] was “inactive”.

As for `CCCCC(=O)O[C@]1(C(=O)COC(=O)CCC(=O)Oc2ccc(N=C=S)cc2)[C@@H](C)C[C@H]2[C@@H]3CCC4=CC(=O)C=C[C@]4(C)[C@@]3(F)[C@@H](O)C[C@@]21C`, the Drug metabolism result in series [1] and in series [2] was “Metabolite_Detected” throughout. For the same molecule, the inhibition result with RBL-2H3 [3] and in the series with RBL-2H3 [5] was “Active” in each case. In addition, the “fold change (FC)” value in series [4] and in series [6] was 4 each time.

For `CCCCC(=O)O[C@]1(C(=O)COC(=O)CCC(=O)Oc2ccc(-c3cc(=S)ss3)cc2)[C@@H](C)C[C@H]2[C@@H]3CCC4=CC(=O)C=C[C@]4(C)[C@@]3(F)[C@@H](O)C[C@@]21C`, the Drug metabolism entry in series [1] and in series [2] was “Metabolite_Notdetected” in each case.

`NC(=S)c1ccc(O)cc1`: the Drug metabolism entry was “Metabolite_Detected” in series [1] and “Metabolite_Notdetected” in series [2].

With `C=CCSSCC=C` [DIALLYLDISULFIDE], in [2], the Drug metabolism entry is reported as “Metabolite_Detected”.

For the molecule `O=C(O)c1cc(=O)c2c(OCC(O)COc3cccc4oc(C(=O)O)cc(=O)c34)cccc2o1` [CROMOLYN], the inhibition at 1000 µM in series [7] was determined as 20%.

For `Oc1ccc(-c2cc(=S)ss2)cc1`, the Drug metabolism entry in series [1] and in [2] was “Metabolite_Notdetected” throughout.

On to `Oc1ccc(N=C=S)cc1`, for which the Drug metabolism entry in [1] and in series [2] was “Metabolite_Detected” each time. Besides, the inhibition at 300 µM in series [8] is 75%. The outcome with BSMC [9] and with BSMC [11] was Active. Further, the inhibition at 100 µM in series [10] was found to be 75%.

Take `CC1(C)O[C@@H]2C[C@H]3[C@@H]4CCC5=CC(=O)C=C[C@]5(C)[C@@]4(F)[C@@H](O)C[C@]3(C)[C@]2(C(=O)CO)O1`: in the series on RBL-2H3 [3], the inhibition entry was “inactive”.

On to `CCCCC(=O)O[C@]1(C(=O)COC(=O)CCC(=O)Oc2ccc(C(N)=S)cc2)[C@@H](C)C[C@H]2[C@@H]3CCC4=CC(=O)C=C[C@]4(C)[C@@]3(F)[C@@H](O)C[C@@]21C`, for which the Drug metabolism entry in series [1] and in [2] was “Metabolite_Detected” in each case.

Turning to `CC1(C)O[C@@H]2C[C@H]3[C@@H]4CCC5=CC(=O)C=C[C@]5(C)[C@@]4(F)[C@@H](O)C[C@]3(C)[C@]2(C(=O)COC(=O)CCC(=O)Oc2ccc(-c3cc(=S)ss3)cc2)O1`, the Drug metabolism entry in series [1] is “Metabolite_Detected”; in [2] it was “Metabolite_Notdetected”.
